According to patent US20240366540A1, “MITOFUSIN INHIBITORS AND USES THEREOF” (Albert Einstein College of Medicine, priority 2021, published 2024):

Tests used:
MFN1 and MFN2 = MFN1 and MFN2 gene expression and protein levels; type: cell-based
Procedure: Western blot. Western blots were performed from whole cell lysates (WCL) prepared in lysis buffer containing 50 mM Tris-HCl pH 7.5, 1% Triton X-100, 150 mM NaCl, 5 mM MgCl2, 1 mM EGTA and 10% glycerol in the presence of protease inhibitor cocktail (Roche).
Analysis of mitochondrial biogenesis-related genes by q-PCR. Total RNA was extracted by using RNeasy Mini Kit (Qiagen) followed by cDNA synthesis using the SuperScript IV VILO Master Mix (Thermo Scientific), both performed according to the manufacturer's protocol. q-PCR was performed using the following primers: […]
For the q-PCR reaction, Power SYBR Green master mix (Thermo Scientific) was used according to the manufacturer's instructions. Briefly, each reaction consisted of 10 ng cDNA, 5 μL Power SYBR Green master mix, 200 nM primers (forward and reverse), and RNase-free water up to 10 μL. q-PCR was performed on the ViiA 7 Real-Time PCR System (Thermo Scientific) with the following cycle parameter: 95° C. for 10 min, 40 cycles of 95° C. for 15 s, and 60° C. for 1 min. q-PCR products were analyzed by melting curves for unspecific products or primer dimer formation. Rpl39 was used as housekeeping gene and 2^−ΔΔCT method was applied to determine the relative mRNAs expression.

mitochondrial biomass = experiment: Mitochondrial biomass (Tomm20 protein, mitotracker green intensity, mitochondrial to nuclear DNA ratio); type: cell-based
Procedure: Western blot. Western blots were performed from whole cell lysates (WCL) prepared in lysis buffer containing 50 mM Tris-HCl pH 7.5, 1% Triton X-100, 150 mM NaCl, 5 mM MgCl2, 1 mM EGTA and 10% glycerol in the presence of protease inhibitor cocktail (Roche). WCL were separated on a 4-12% NuPAGE MES gel (Invitrogen), transferred into a PVDF membrane, block for 1 hr and immunoblot with the corresponding anti-bodies. Determination of mtDNA to genomic DNA ratio by q-PCR. DNA was extracted using DNeasy Blood and Tissue kit (Qiagen) according to the manufacturer's protocol. q-PCR was used to determine the ratio of mitochondrial DNA (mtDNA) and genomic DNA (gn DNA). The following primers were used for q-PCR reaction: […]

[1] = test system: mitochondrial biogenesis markers; experiment: Mitochondrial biogenesis markers by q-PCR; type: cell-based
Procedure: Analysis of mitochondrial biogenesis-related genes by q-PCR. Total RNA was extracted by using RNeasy Mini Kit (Qiagen) followed by cDNA synthesis using the SuperScript IV VILO Master Mix (Thermo Scientific), both performed according to the manufacturer's protocol. q-PCR was performed using the following primers: For the q-PCR reaction, Power SYBR Green master mix (Thermo Scientific) was used according to the manufacturer's instructions. […] Rpl39 was used as housekeeping gene and 2^−ΔΔCT method was applied to determine the relative mRNAs expression.

MEFs [2] = experiment: Mitochondrial respiration in cellulo (OCR, Seahorse XF24); type: cell-based, mouse; conditions: WT MEFs; MASM7 1 μM or MFI8 20 μM, 6 hrs
Procedure: Mitochondrial respiration in cellulo. Mitochondrial oxygen consumption rates (OCR) were assessed using a XF24 Analyzer (Seahorse Biosciences, Billerica MA, USA). In brief, 3×10^4 MEFs were cultured in a XF24 cell culture microplate containing DMEM supplemented with 10% fetal bovine serum. […] OCR was normalized to cell number or total protein content per well for each condition tested.

MEFs [3] = experiment: Mitochondrial depolarization assay (TMRE membrane potential); type: cell-based, mouse
Procedure: Mitochondrial depolarization assay (mtΔΨ). MEFs (10^4 cells/well) were seeded in a 96-well black plate and treated with MASM7 or MFI8 for 6 hrs. Following treatments, cells were stained with 250 nM TMRE (Sigma; Cat. 87917) for 20 min at 37° C. Subsequently, cells were washed with thrice with PBS. Fluorescence intensity was detected by a M100 microplate reader (TECAN, Ex: 540 nm/Em: 579 nm).

MEFs [4] = experiment: RNA-seq gene expression; type: cell-based, mouse; conditions: RNA-seq
Description: RNA-seq. Sequencing results were demultiplexed and converted to FASTQ format using Illumina bcl2fastq software. The sequencing reads were adapter and quality trimmed with Trimmomatic and then aligned to the mouse genome (build mm10/GRCm38) using the splice-aware STAR aligner. The featureCounts program was utilized to generate counts for each gene based on how many aligned reads overlap its exons. These counts were then normalized and used to test for differential expression using negative binomial generalized linear models implemented by the DESeq2 R package.

MEFs [5] = experiment: Metabolomics (TCA cycle carboxylic acids, NAD, NADH); type: cell-based, mouse
Procedure: Metabolomics. […] Cells were harvested using a cell scraper and centrifuged at 1200 rpm in 4° C. for 3 min. Each cell pellet sample was suspended into 250 to 700 μL of 80% aqueous methanol in an Eppendorf tube. The samples were vortex mixed for 15 s and sonicated in an ice-water bath for 5 min, followed by centrifugal clarification at 15,000 rpm and 5° C. in an Eppendorf […] centrifuge. The clear supernatants were collected. A standard stock solution of TCA cycle carboxylic acids, NAD and NADH was prepared in 80% methanol as S1. This standard solution S1 was serially diluted 1 to 4 (v/v) with the same solvent to make standard solutions S2 to S10. 20 μL of each standard solution and an aliquot of the clear supernatant from each cell was mixed with 20 μL of an internal standard solution containing 9 ^13C- or deuterium labeled analogues of the TCA cycle carboxylic acids (except isocitric acid), 20 μL of 200 mM 3-NPH solution and 20 μL of 150 mM of EDC solution. The mixtures were allowed to react at 30° C. for 30 min. After reaction, 120 μL of water was added to each solution. 10 μL of the resultant solutions was injected into a C18 UPLC column to quantitate the TCA cycle carboxylic acids by UPLC-MRM/MS with (-) ion detection, according to the procedure we described in a publication.

MEFs [6] = experiment: Caspase-3/7 activation assay; type: cell-based, mouse; conditions: 6 hr, Caspase-Glo 3/7
Procedure: Caspase-3/7 activation assay. Cells (5×10^3 cells/well) were seeded in a 96-well white plate and treated with MASM7, MFI8. Caspase 3/7 activation was measured after 6 hr by addition of the Caspase-Glo 3/7 reagent according to the manufacturer's protocol (Promega). Luminescence was detected by a F200 PRO microplate reader (TECAN). Caspase assays were performed in at least triplicate and the data normalized to vehicle-treated control wells. Dilutions of MASM7 or MFI8 were performed using a TECAN D300e Digital Dispenser from 10 mM stocks.

cells = experiment: Cell viability assay (CellTiter-Glo); type: cell-based; conditions: 72 hours
Procedure: Cell viability assay. […] Cell viability was assayed after 72 hrs by addition of CellTiter-Glo reagent according to the manufacturer's protocol (Promega). Luminescence was measured using a […] microplate reader (TECAN). Viability assays were performed in at least triplicate and the data normalized to vehicle-treated control wells.

MEFs [7] = experiment: DNA damage, yH2AX immunofluorescence in MEFs; type: cell-based, mouse; conditions: 6 h
Procedure: Immunofluorescent analysis and microscopy. […] After treatments, cells were washed with PBS and fixed with 4% PFA for 15 min. […] After incubation with primary antibodies, cells were washed with PBS and incubated with the appropriate mouse secondary antibody (ThermoFisher Scientific; A-11001) in the blocking solution. After PBS washes, coverslips were dipped in water and mounted on glass slides using Vectashield containing DAPI (Vector laboratories). […] Data were analyzed with ImageJ.

MEFs [8] = experiment: Mitochondrial aspect ratio (Mito AR), live cell imaging
Procedure: Live cell imaging. MEFs were seeded on chamber slides (MatTek Corporation: 35 mm dishes, No. 1.5, 14 mm glass diameter) at ˜70% confluence. […] Images were taken with Leica SP5 inverted confocal microscope. Data were analyzed with Image J software. >200 mitochondria were measured per condition in mitochondrial aspect ratio.
Measurement of mitochondrial aspect ratio (Mito AR). Images that depict stained mitochondria with mitotracker green were analyzed using FIJI We measured for each mitochondrion its length and width. Then, we divided the length by the width for each mitochondrion to get its mitochondrial aspect ratio. >200 mitochondria were measured per treatment.

[9] = MFN1/MFN2 DKO MEFs reconstituted with WT MFN2

CC(Sc1nnc(C2CC2)n1-c1ccccc1)C(=O)Nc1sc2c(c1C(N)=O)CCC2 (stereo not shown) [MASM7, 2-(2-((5-cyclopropyl-4-phenyl-4H-1,2,4-triazol-3-yl)thio)propanamido)-5,6-dihydro-4H-cyclopenta[b]thiophene-3-carboxamide]
MFN1 and MFN2 gene expression and corresponding protein levels (MFN1 and MFN2): neither MASM7 nor MFI8 altered
Tomm20 protein levels, mitotracker green intensity and mitochondrial to nuclear DNA ratio (mitochondrial biomass): neither MASM7 nor MFI8 altered
gene expression levels of mitochondrial biogenesis markers [1]: no alteration
respiration and mitochondrial ATP production (OCR) (MEFs [2]): increased basal and maximal respiration and mitochondrial ATP production
mitochondrial membrane potential (TMRE) (MEFs [3]; [9]): significantly increased mitochondrial membrane potential
mitochondrial membrane potential (TMRE) (MEFs [3]; WT MEFs, 6 hrs): concentration responsively increased mitochondrial membrane potential
compound-induced increase in mitochondrial membrane potential (MEFs [3]; co-treated with myxothiazol or rotenone): revoked
gene expression of subunits of the respiratory complexes (MEFs [4]): altered expression of selected genes of the respiratory complexes rather than inducing a consistent trend
total NAD+/NADH ratio (MEFs [5]): no effect on total NAD^+/NADH ratio
metabolites of the TCA cycle (MEFs [5]; UPLC-MRM/MS): no significant effect in the majority of the metabolites of the TCA cycle
caspase-3/7 activity (MEFs [6]): no effect
cellular viability (cells): neither MFI8 nor MASM7 decreased cellular viability
DNA damage (yH2AX foci) (MEFs [7]; MFN1/MFN2 DKO MEFs): did not induce DNA damage in any of the cell lines
DNA damage (yH2AX foci) (MEFs [7]; WT MEFs): did not induce DNA damage in any of the cell lines
mitochondrial aspect ratio (MEFs [8]; MFN1/MFN2 DKO MEFs reconstituted with D725A/L727A or L727A MFN2 mutants): not when reconstituted with D725A/L727A or L727A MFN2 mutants
mitochondrial aspect ratio (MEFs [8]; [9]): markedly increased mitochondrial aspect ratio
